# Results as given in patent US20250002489A1, “BIFUNCTIONAL COMPOUNDS FOR DEGRADING ITK VIA UBIQUITIN PROTEOSOME PATHWAY” (NURIX THERAPEUTICS, INC., priority 2021, published 2025).
# Target: T1, ITK (Jurkat or Molt4 cells) (Homo sapiens, UniProt Q08881)
# T1 construct: either human Jurkat (Clone E6-1 ATCC TIB-152) or Motl4 (ATCC CRL-1552), were plated; endogenous in cells; host or cells: Jurkat Clone E6-1 (ATCC TIB-152) or Molt4 (ATCC CRL-1552)
# T1 sequence (Q08881 1-620): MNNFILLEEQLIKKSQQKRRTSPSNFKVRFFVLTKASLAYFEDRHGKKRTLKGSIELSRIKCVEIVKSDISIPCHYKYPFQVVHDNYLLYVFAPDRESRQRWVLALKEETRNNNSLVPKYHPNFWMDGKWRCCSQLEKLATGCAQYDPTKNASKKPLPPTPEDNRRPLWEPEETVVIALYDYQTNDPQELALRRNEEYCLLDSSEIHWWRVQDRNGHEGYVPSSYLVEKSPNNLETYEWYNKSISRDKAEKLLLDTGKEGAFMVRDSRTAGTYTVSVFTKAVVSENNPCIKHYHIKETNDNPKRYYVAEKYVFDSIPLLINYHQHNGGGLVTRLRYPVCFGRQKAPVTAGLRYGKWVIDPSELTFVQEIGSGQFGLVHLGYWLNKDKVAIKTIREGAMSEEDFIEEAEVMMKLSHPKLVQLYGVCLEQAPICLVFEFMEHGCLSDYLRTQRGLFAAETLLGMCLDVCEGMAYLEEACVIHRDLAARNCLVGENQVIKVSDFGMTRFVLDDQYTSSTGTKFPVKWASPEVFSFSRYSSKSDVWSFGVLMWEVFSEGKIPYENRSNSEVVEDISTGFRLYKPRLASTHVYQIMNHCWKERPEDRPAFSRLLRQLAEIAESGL
# Experiment: ITK Degradation MSD (Meso Scale Discovery) Assay
# Format: cell-based
# Conditions: 4 or 6 hrs incubation; for DC50: best fit IC50 used as DC50
# Protocol: Compound dilution series (7-point, 5-fold dilutions in DMSO, rows B—H with replicate in Column 1/2, 3/4, 5/6, 7, and 8 at 2000× the final required concentrations were prepared in 96-well plate (Falcon, cat. no. 353077). Row A, Column 1-8 were control DMSO. The 2000× solutions ranged from 2 mM to 128 nM (final assay concentration range 1 μM to […]). The 2000×solutions were added to cells in 10 μL volume, for a final DMSO concentration of 0.5% and final assay compound concentration of 1×. For the cells, either human Jurkat (Clone E6-1 ATCC TIB-152) or Motl4 (ATCC CRL-1552), were plated at 1×10^6 cells/mL, 100 μL/well ([…]) in complete RPMI (10% FBS, 1% L-glutamine). The cells were incubated with compounds 26-29 for 4 or 6 hrs at 32° C./6% CO2.
# Following incubation, plates were centrifuged at 1200 rpm for 5 min. Supernatant was removed and 50 μL of cell lysis buffer (MSD Tris lysis buffer (R60TX), complete Mini EDTA-free protease inhibitor (Sigma 11836170001), Protease Inhibitor Cocktail (Sigma, P2714), Phosphatase Inhibitor Cocktail 2 and 3 (Sigma, P5726 and P0044), Benzonase (Sigma, E1014)) was added to each well. Plate was sealed and shook at 4° C. for 30 min. Plate was centrifuged and 45 μL was removed for plate assay.
# Assay plate preparation: Meso Scale Discovery (MSD) multi-array sm spot 96-well plates (Goat anti-Rabbit L^45-RA), were blocked with 3% BSA blocking buffer (3% Bovine Serum Albumin (Sigma A3059)+TBS 0.2% Tween-20) for one hour with gentle rocking at room temperature. Plate was then washed with 200 μL of 1×TBST (TBS 0.2% Tween-20) three times. After the last wash, all liquid was removed and 50 μL per well of capture antibody (abcam ITK Y402-ab32507) was added to plate at a 1:1000 dilution in blocking buffer (see above). Plate was sealed and rocked at room temperature for 2 hrs. Plate was then washed three times with 200 μL of 1×TBST. After the last wash, all liquid was removed and 45 μL of cell lysate (from above) was added to plate. Plate was sealed and rocked overnight at 4° C. The next day, cell lysates were removed, and assay plate was washed three times with 200 μL of 1×TBST. After the last wash, liquid was removed and detection antibody (CST ITK (2F12) #2380) was added at 50 μL per well at a dilution of 1:1000 in blocking buffer. Plate was sealed and rocked at room temperature for 2 hrs. Plate was washed three times with 200 μL of 1×TBST. After the last wash, all liquid was removed, MSD […] sulfo tag (R32AC-1) was diluted to 1:1000 in blocking buffer. 50 μL was added to each well on the plate. Plate was sealed and incubated at room temperature for one hour. Plate was washed three times with 200 μL of 1×TBST. After last wash, all liquid was removed and 150 μL of 1×MSD Read Buffer T (R92PC) was then added to each well for ECL read out.
# For reading ECL signal, plate was read on a Meso Scale Discovery (MSD) MESO Sector S 600 plate reader. Percent ITK was then calculated as described below.
# Percent ITK remaining per sample was calculated as follows: […]
# Using Graphpad Prism, % ITK remaining values were plotted as a function of compound concentration. To determine DC50 and Dmax values, resulting curves were fit to the Prism curve-fitting equation “log(inhibitor) vs response−Variable slope (four parameters)” (reported best fit value IC50 used as DC50).
SMILES,Dmax [%],DC50 [nM]
"Cc1ncsc1-c1ccc([C@H](C)NC(=O)[C@@H]2C[C@@H](O)CN2C(=O)[C@@H](NC(=O)CN2CCN(CC(=O)N3CC([C@@H](c4ccccc4)n4cc(NC(=O)c5n[nH]c6c5C[C@@H]5C(F)(F)[C@]5(C)C6)cn4)C3)CC2)C(C)(C)C)cc1 [Compound 24, (4aS,5aR)-5,5-difluoro-N-(1-((S)-(1-(2-(4-(2-(((S)-1-((2S,4R)-4-hydroxy-2-(((S)-1-(4-(4-methylthiazol-5-yl)phenyl)ethyl)carbamoyl)pyrrolidin-1-yl)-3,3-dimethyl-1-oxobutan-2-yl)amino)-2-oxoethyl)piperazin-1-yl)acetyl)azetidin-3-yl)(phenyl)methyl)-1H-pyrazol-4-yl)-5a-methyl-1,4,4a,5,5a,6-hexahydrocyclopropa[f]indazole-3-carboxamide]",93,92.7
"Cc1ncsc1-c1ccc(CNC(=O)[C@@H]2C[C@@H](O)CN2C(=O)[C@@H](NC(=O)C2(F)CC2)C(C)(C)C)c(OCCCCC(=O)N2CC([C@@H](c3ccccc3)n3cc(NC(=O)c4n[nH]c5c4C[C@@H]4C(F)(F)[C@]4(C)C5)cn3)C2)c1 [Compound 34, (4aS,5aR)-5,5-difluoro-N-(1-((S)-(1-(5-(2-(((2S,4R)-1-((S)-2-(1-fluorocyclopropane-1-carboxamido)-3,3-dimethylbutanoyl)-4-hydroxypyrrolidine-2-carboxamido)methyl)-5-(4-methylthiazol-5-yl)phenoxy)pentanoyl)azetidin-3-yl)(phenyl)methyl)-1H-pyrazol-4-yl)-5a-methyl-1,4,4a,5,5a,6-hexahydrocyclopropa[f]indazole-3-carboxamide]",94,10.8
"CN[C@@H](C)C(=O)N[C@H](C(=O)N1CCCC1c1nc(C(=O)c2cccc(OCCOCCC(=O)N3CC([C@@H](c4ccccc4)n4cc(NC(=O)c5n[nH]c6c5C[C@@H]5C(F)(F)[C@]5(C)C6)cn4)C3)c2)cs1)C1CCCCC1 (stereo in doubt) [Compound 5, (4aS,5aR)—N-(1-((S)-(1-(3-(2-(3-(2-((R)-1-((S)-2-cyclohexyl-2-((S)-2-(methylamino)propanamido)acetyl)pyrrolidin-2-yl)thiazole-4-carbonyl)phenoxy)ethoxy)propanoyl)azetidin-3-yl)(phenyl)methyl)-1H-pyrazol-4-yl)-5,5-difluoro-5a-methyl-1,4,4a,5,5a,6-hexahydrocyclopropa[f]indazole-3-carboxamide]",,14.6
"CN[C@@H](C)C(=O)N[C@H](C(=O)N1CCC[C@H]1c1nc(C(=O)c2cccc(OCCOCCOCCOCCOCCC(=O)N3CC([C@@H](c4ccccc4)n4cc(NC(=O)c5n[nH]c6c5C[C@@H]5C(F)(F)[C@]5(C)C6)cn4)C3)c2)cs1)C1CCCCC1 [Compound 6, (4aS,5aR)—N-(1-((S)-(1-(1-(3-(2-((S)-1-((S)-2-cyclohexyl-2-((S)-2-(methylamino)propanamido)acetyl)pyrrolidin-2-yl)thiazole-4-carbonyl)phenoxy)-3,6,9,12-tetraoxapentadecan-15-oyl)azetidin-3-yl)(phenyl)methyl)-1H-pyrazol-4-yl)-5,5-difluoro-5a-methyl-1,4,4a,5,5a,6-hexahydrocyclopropa[f]indazole-3-carboxamide]",,14
"Cc1ncsc1-c1ccc(CNC(=O)[C@@H]2C[C@@H](O)CN2C(=O)[C@@H](NC(=O)CCOCCOCCOCCOCCN2CC([C@@H](c3ccccc3)n3cc(NC(=O)c4n[nH]c5c4C[C@@H]4C(F)(F)[C@]4(C)C5)cn3)C2)C(C)(C)C)cc1 [Compound 12, (4aS,5aR)-5,5-difluoro-N-(1-((S)-(1-((S)-17-((2S,4R)-4-hydroxy-2-((4-(4-methylthiazol-5-yl)benzyl)carbamoyl)pyrrolidine-1-carbonyl)-18,18-dimethyl-15-oxo-3,6,9,12-tetraoxa-16-azanonadecyl)azetidin-3-yl)(phenyl)methyl)-1H-pyrazol-4-yl)-5a-methyl-1,4,4a,5,5a,6-hexahydrocyclopropa[f]indazole-3-carboxamide]",,114
"Cc1ncsc1-c1ccc(CNC(=O)[C@@H]2C[C@@H](O)CN2C(=O)[C@@H](NC(=O)CCOCCOCCOCCC(=O)N2CC([C@@H](c3ccccc3)n3cc(NC(=O)c4n[nH]c5c4C[C@@H]4C(F)(F)[C@]4(C)C5)cn3)C2)C(C)(C)C)cc1 [Compound 15, (4aS,5aR)-5,5-difluoro-N-(1-((S)-(1-((S)-15-((2S,4R)-4-hydroxy-2-((4-(4-methylthiazol-5-yl)benzyl)carbamoyl)pyrrolidine-1-carbonyl)-16,16-dimethyl-13-oxo-4,7,10-trioxa-14-azaheptadecanoyl)azetidin-3-yl)(phenyl)methyl)-1H-pyrazol-4-yl)-5a-methyl-1,4,4a,5,5a,6-hexahydrocyclopropa[f]indazole-3-carboxamide]",,54.7
"Cc1ncsc1-c1ccc([C@H](C)NC(=O)[C@@H]2C[C@@H](O)CN2C(=O)[C@@H](NC(=O)CC2CCN(c3ccc(C(=O)N4CC([C@@H](c5ccccc5)n5cc(NC(=O)c6n[nH]c7c6C[C@@H]6C(F)(F)[C@]6(C)C7)cn5)C4)nc3)CC2)C(C)(C)C)cc1 [Compound 22, (4aS,5aR)-5,5-difluoro-N-(1-((S)-(1-(5-(4-(2-(((S)-1-((2S,4R)-4-hydroxy-2-(((S)-1-(4-(4-methylthiazol-5-yl)phenyl)ethyl)carbamoyl)pyrrolidin-1-yl)-3,3-dimethyl-1-oxobutan-2-yl)amino)-2-oxoethyl)piperidin-1-yl)picolinoyl)azetidin-3-yl)(phenyl)methyl)-1H-pyrazol-4-yl)-5a-methyl-1,4,4a,5,5a,6-hexahydrocyclopropa[f]indazole-3-carboxamide]",88,3.78
"CN[C@@H](C)C(=O)N[C@H](C(=O)N1CCC[C@H]1c1nc(C(=O)c2cccc(OCCCN3CC([C@@H](c4ccccc4)n4cc(NC(=O)c5n[nH]c6c5C[C@@H]5C(F)(F)[C@]5(C)C6)cn4)C3)c2)cs1)C1CCCCC1 [Compound 8, (4aS,5aR)—N-(1-((S)-(1-(3-(3-(2-((S)-1-((S)-2-cyclohexyl-2-((S)-2-(methylamino)propanamido)acetyl)pyrrolidin-2-yl)thiazole-4-carbonyl)phenoxy)propyl)azetidin-3-yl)(phenyl)methyl)-1H-pyrazol-4-yl)-5,5-difluoro-5a-methyl-1,4,4a,5,5a,6-hexahydrocyclopropa[f]indazole-3-carboxamide]",,49
CN[C@@H](C)C(=O)N[C@H](C(=O)N1C[C@@H](NC(=O)CCOCCC(=O)N2CC([C@@H](c3ccccc3)n3cc(NC(=O)c4n[nH]c5c4C[C@@H]4C(F)(F)[C@]4(C)C5)cn3)C2)C[C@H]1C(=O)N[C@@H]1CCCc2ccccc21)C1CCCCC1 [Compound 1],,251
